# Measured values: patent US20100113276A1, “USE OF N2-PHENYLAMIDINES AS HERBICIDES” (BAYER CROPSCIENCE AG, priority 2007, published 2010)
# Test: log P by HPLC on reversed-phase column (C18), EEC Directive 79/831 Annex V.A8
# Type: physicochemical
# Settings: C18, 40° C.; for log p H3PO4: 0.1% aqueous phosphoric acid / acetonitrile; for log p HCO2H: aqueous formic acid / acetonitrile
# Experimental: The log P data were determined in accordance with the EEC Directive 79/831 Annex V.A8 by HPLC (High Performance Liquid Chromatography) on a reversed-phase column (C18) using the following methods: […]
# Calibration was carried out with the help of unbranched alkan-2-ones (consisting of 3 to 13 or 16 carbon atoms) with known logP values (determination of the logP values via the retention times by means of linear interpolation between two subsequent alkanones).
Structure (SMILES),log p H3PO4,log p HCO2H,log p neutral,log p acidic
COc1cc(-c2ccc(C)cc2)c(OC)cc1N=CN(C)C [compound 998],,,,1.76
CCN(C)C=Nc1cc(Cl)c(Oc2nc(C3(Cl)CC3)ns2)cc1C [compound 612],,,,1.72
Cc1cc(N=CN2CCCCC2)c(Cl)cc1Oc1ccc(C(C)(C)C)cc1 [compound 886],3.01,2.78,6.49,
Cc1cc(N=CN2CCCCC2)c(Cl)cc1Oc1cccc(Oc2ccccc2)c1 [compound 882],2.82,2.66,6.03,
CN(C)C=Nc1cc(Cl)c(Oc2ccc(Cl)c(C(F)(F)F)c2)cc1Cl [compound 815],2.35,2.45,5.15,
CN(C)C=Nc1cc(C(F)(F)F)c(Oc2ccc(Cl)c(C(F)(F)F)c2)cc1Cl [compound 947],2.61,2.78,5.39,
CCN(C)C=Nc1cc(C)c(CCc2ccccc2F)cc1C [compound 345],,2.45,,
CCCN(C)C=Nc1cc(Cl)c(Oc2cc(Cl)cc(C(F)(F)F)c2)cc1C [compound 566],,,,2.83
CCN(C)C=Nc1cc(C)c(C=Cc2ccc(OC)cc2)cc1C [compound 286],,2.06,,
CCN(C)C=Nc1cc(F)c(-c2ccc(OC(C)(C)C)cc2)cc1C [compound 673],,,,2.23
CCN(C)C=Nc1cc(Cl)c(Oc2cc(Cl)cc(C(F)(F)F)c2)cc1C [compound 565],,,,2.64
CCc1cc(Oc2cc(C)c(N=CN(C)CC)cc2Cl)ccc1Cl [compound 583],,2.78,6.09,

# Next, values leading:
log p H3PO4,log p HCO2H,log p neutral,log p acidic,Structure (SMILES)
2.74,2.79,5.91,,CCN(C)C=Nc1cc(Cl)c(Oc2cccc(C(C)(C)C)c2)cc1Cl [compound 806]
1.57,2.65,6.11,,Cc1cc(N=CN(C)C)c(Cl)cc1Oc1ccc(Cl)c(C(C)(C)C)c1 [compound 902]
2.53,2.78,5.61,,CC(C)N(C)C=Nc1cc(Cl)c(Oc2nc(C(C)(C)C)ns2)cc1Cl [compound 826]
,,6.30,2.69,CCN(C)C=Nc1cc(C)c(-c2ccc(C(C)(C)C)cc2)cc1C [compound 446]
,,,2.38,CCN(C)C=Nc1cc(C)c(Oc2ccc3ccccc3c2)cc1C [compound 538]
,,5.54,2.31,CCN(C)C=Nc1cc(C)c(Oc2cc(F)cc(C(F)(F)F)c2)cc1C [compound 371]
,2.72,,2.96,Cc1cc(Oc2cccc(C(C)(C)C)c2)c(C)cc1N=CN(C)C(C)C [compound 440]
2,2.08,4.84,,CC(C)N(C)C=Nc1cc(Cl)c(Oc2ccccc2)cc1Cl [compound 802]
